Test results: the supplement of paper PMC10307832

The cell lines below were run with CC(C)CCN1c2nc(Nc3cc(F)c(O)c(F)c3)ncc2N(C)C(=O)C1C [BI-D1870] + CC(C)C[C@H](NC(=O)[C@H](Cc1ccccc1)NC(=O)c1cnccn1)B(O)O [Bortezomib] (partner 0.002 µM) (assay: relative viability (nuclei count vs DMSO), 5 days (fraction); higher = more cells survive). Conditions: first compound 0.04 µM.
Method in brief: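 For relative viability, nuclei counts in treated wells were divided by those in vehicle wells. Lung cancer cell lines had been pin-tool dosed in 1536-well plates the day after seeding and cultured for 5 days, then fixed and stained in one step (final 0.05% Triton X-100, 1% formaldehyde, 1 ug/ml Hoechst) and imaged at 4×. Doses were one drug alone or a fixed anchor-drug dose plus five library-drug doses (not always all listed) in √10 steps, and values are duplicate-plate medians.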

Cell Line	relative viability
HOP-62	0.74
HCC-44	1.08
LU99A	1.34
BEN	0.897
HARA	1.03
HCC-78	0.545
NCI-H322M	1.23
LCLC-97TM1	0.833
NCI-H2009	1.03
A-427	1.08
NCI-H441	0.749
NCI-H661	0.801
NCI-H1734	1.21
NCI-H460	1.45
NCI-H2347	1.04
SK-LU-1	1.16

Cell Line	relative viability
201T	1.14
NCI-H1915	1.04
HCC-827	1.14
LXF-289	1.05
NCI-H23	1.44
NCI-H647	1.02
NCI-H1651	1.06
EPLC-272H	0.887
NCI-H1792	1.03
NCI-H1355	1.24
NCI-H3122	1
NCI-H1437	0.539
NCI-H1755	1.07
NCI-H2023	1.2
HCC-15	1.03

Same assay, conditions: first compound 0.1265 µM

Cell Line	relative viability
NCI-H2405	0.89
HOP-62	0.812
HCC-44	0.965
LU99A	1.03
BEN	0.793
HARA	1.03
HCC-78	0.402
NCI-H322M	1.24
LCLC-97TM1	0.693
NCI-H2009	0.934
A-427	1.01
NCI-H441	0.535
NCI-H661	0.67
NCI-H1734	0.904
NCI-H460	1.01
NCI-H2347	0.856

Cell Line	relative viability
SK-LU-1	1.07
201T	1.06
NCI-H1915	0.951
HCC-827	1.1
LXF-289	1.02
NCI-H23	0.85
NCI-H647	0.857
NCI-H1651	0.943
EPLC-272H	0.99
NCI-H1792	0.915
NCI-H1355	1.22
NCI-H3122	0.932
NCI-H1437	0.474
NCI-H1755	0.921
NCI-H2023	0.901
HCC-15	1.01

Same assay, conditions: first compound 0.4 µM

Cell Line	relative viability
NCI-H2405	0.959
HOP-62	0.809
HCC-44	0.909
LU99A	1.12
BEN	0.971
HARA	1.22
HCC-78	0.492
NCI-H322M	1.22
LCLC-97TM1	0.734
NCI-H2009	1.01
A-427	0.936
NCI-H441	0.796
NCI-H661	0.695
NCI-H1734	0.874
NCI-H460	1.06
NCI-H2347	1.14

Cell Line	relative viability
SK-LU-1	1.04
201T	1.07
NCI-H1915	0.905
HCC-827	0.985
LXF-289	1
NCI-H23	1.16
NCI-H647	1.08
NCI-H1651	0.885
EPLC-272H	1.01
NCI-H1792	0.942
NCI-H1355	1.21
NCI-H3122	1.05
NCI-H1437	0.478
NCI-H1755	0.949
NCI-H2023	0.957
HCC-15	0.922

Same assay, conditions: first compound 1.265 µM

Cell Line	relative viability
NCI-H2405	1.02
HOP-62	0.803
HCC-44	0.941
LU99A	1.06
BEN	0.979
HARA	1.18
HCC-78	0.56
NCI-H322M	1.14
LCLC-97TM1	0.957
NCI-H2009	0.866
A-427	1.08
NCI-H441	0.777
NCI-H661	1.01
NCI-H1734	0.893
NCI-H460	0.686
NCI-H2347	1.24

Cell Line	relative viability
SK-LU-1	1.49
201T	1.1
NCI-H1915	1.03
HCC-827	1.03
LXF-289	0.977
NCI-H23	1.03
NCI-H647	1.31
NCI-H1651	1.01
EPLC-272H	1.1
NCI-H1792	1.13
NCI-H1355	1.28
NCI-H3122	1.03
NCI-H1437	0.466
NCI-H1755	1.09
NCI-H2023	0.95
HCC-15	1.04

Same assay, conditions: first compound 4 µM

Cell Line	relative viability
NCI-H2405	1.02
HOP-62	0.456
HCC-44	0.99
LU99A	1.02
BEN	0.663
HARA	0.943
HCC-78	0.42
NCI-H322M	1.06
LCLC-97TM1	0.372
NCI-H2009	0.246
A-427	0.968
NCI-H441	0.71
NCI-H661	0.808
NCI-H1734	0.602
NCI-H460	0.51
NCI-H2347	0.915

Cell Line	relative viability
SK-LU-1	0.823
201T	1.06
NCI-H1915	0.879
HCC-827	1.12
LXF-289	0.879
NCI-H23	0.529
NCI-H647	0.743
NCI-H1651	0.903
EPLC-272H	0.772
NCI-H1792	0.841
NCI-H1355	1.02
NCI-H3122	0.996
NCI-H1437	0.423
NCI-H1755	0.937
NCI-H2023	0.647
HCC-15	0.863
